Results on 16 molecules are retold here after ChEMBL document CHEMBL4004848, “Dregamine and tabernaemontanine derivatives as ABCB1 modulators on resistant cancer cells” (Eur J Med Chem, 2017).

In one data set the test system is NIH3T3. The data set can be described thus: Cytotoxicity against mouse NIH/3T3 cells after 24 hrs by MTT assay. It counts as cell-based. The conditions noted are these: NIH3T3, 24 h.
Data set [1] has as its target T1, ATP-dependent translocase ABCB1 (Homo sapiens, UniProt P08183). As to the kind of experiment: Inhibition of human ABCB1 expressed in mouse L5178Y cells assessed as fluorescence activity ratio at 20 uM pretreated for 10 mins followed by rhodamine-123 addition after 20 mins by flow cytometry. In kind it is cell-based.
Data set [2] concerns the target T1, ATP-dependent translocase ABCB1. As to the kind of experiment: Inhibition of human ABCB1 expressed in mouse L5178Y cells assessed as increase in rhodamine-123 accumulation by measuring forward scatter count of cells at 20 uM pretreated for 10 mins followed by rhodamine-123 addition after 20 mins by flow cytometry (reference value: 2206). In kind it is cell-based.

Data set [3] shares this target. The data set can be described thus: Inhibition of human ABCB1 expressed in mouse L5178Y cells assessed as increase in rhodamine-123 accumulation by measuring side scatter count of cells at 2 uM pretreated for 10 mins followed by rhodamine-123 addition after 20 mins by flow cytometry (reference value: 903). In kind it is cell-based. (A flow cytometer gives signals particle by particle.)

For data set [4] the target is unchanged. As to the kind of experiment: Inhibition of human ABCB1 expressed in mouse L5178Y cells assessed as fluorescence activity ratio at 2 uM pretreated for 10 mins followed by rhodamine-123 addition after 20 mins by flow cytometry. It counts as cell-based.
Data set [5] shares this target. As to the kind of experiment: Inhibition of human ABCB1 expressed in mouse L5178Y cells pretreated for 10 mins followed by rhodamine-123 addition after 20 mins by flow cytometry. It counts as cell-based.
Data set [6] shares this target. As to the kind of experiment: Inhibition of human ABCB1 expressed in mouse L5178Y cells assessed as increase in rhodamine-123 accumulation by measuring side scatter count of cells at 20 uM pretreated for 10 mins followed by rhodamine-123 addition after 20 mins by flow cytometry (reference value: 903). It counts as cell-based.
Another data set has as its system L5178Y. The data set can be described thus: Cytotoxicity against mouse L5178Y cells after 24 hrs by MTT assay. It counts as functional, cell-based.
Data set [7] addresses T1, ATP-dependent translocase ABCB1. As to the kind of experiment: Inhibition of human ABCB1 expressed in mouse L5178Y cells assessed as increase in rhodamine-123 accumulation by measuring forward scatter count of cells at 2 uM pretreated for 10 mins followed by rhodamine-123 addition after 20 mins by flow cytometry (reference value: 2206). In kind it is cell-based.
The target is the same in data set [8]. The data set can be described thus: Inhibition of human ABCB1 expressed in mouse L5178Y cells assessed as potentiation of doxorubicin-induced cytotoxicity by measuring combination index at 2:25 doxorubicin to compound ratio after 48 hrs by MTT assay. In kind it is cell-based. Background: Tetrazolium assays rely on reduction of a dye to a coloured formazan, in cell work by metabolically active cells.

Data set [9] is described as follows: Selectivity index, ratio of IC50 for mouse L5178Y cells to IC50 for human ABCB1 expressed in L5178Y cells.
A short description of data set [10]: Selectivity index, ratio of IC50 for mouse NIH/3T3 cells to IC50 for mouse L5178Y cells. It counts as functional.

Structures are written as SMILES. pIC50: −log10 of the molar value. A value given as a limit tells only on which side of the number the result lay.

T1 sequence (P08183 whole entry): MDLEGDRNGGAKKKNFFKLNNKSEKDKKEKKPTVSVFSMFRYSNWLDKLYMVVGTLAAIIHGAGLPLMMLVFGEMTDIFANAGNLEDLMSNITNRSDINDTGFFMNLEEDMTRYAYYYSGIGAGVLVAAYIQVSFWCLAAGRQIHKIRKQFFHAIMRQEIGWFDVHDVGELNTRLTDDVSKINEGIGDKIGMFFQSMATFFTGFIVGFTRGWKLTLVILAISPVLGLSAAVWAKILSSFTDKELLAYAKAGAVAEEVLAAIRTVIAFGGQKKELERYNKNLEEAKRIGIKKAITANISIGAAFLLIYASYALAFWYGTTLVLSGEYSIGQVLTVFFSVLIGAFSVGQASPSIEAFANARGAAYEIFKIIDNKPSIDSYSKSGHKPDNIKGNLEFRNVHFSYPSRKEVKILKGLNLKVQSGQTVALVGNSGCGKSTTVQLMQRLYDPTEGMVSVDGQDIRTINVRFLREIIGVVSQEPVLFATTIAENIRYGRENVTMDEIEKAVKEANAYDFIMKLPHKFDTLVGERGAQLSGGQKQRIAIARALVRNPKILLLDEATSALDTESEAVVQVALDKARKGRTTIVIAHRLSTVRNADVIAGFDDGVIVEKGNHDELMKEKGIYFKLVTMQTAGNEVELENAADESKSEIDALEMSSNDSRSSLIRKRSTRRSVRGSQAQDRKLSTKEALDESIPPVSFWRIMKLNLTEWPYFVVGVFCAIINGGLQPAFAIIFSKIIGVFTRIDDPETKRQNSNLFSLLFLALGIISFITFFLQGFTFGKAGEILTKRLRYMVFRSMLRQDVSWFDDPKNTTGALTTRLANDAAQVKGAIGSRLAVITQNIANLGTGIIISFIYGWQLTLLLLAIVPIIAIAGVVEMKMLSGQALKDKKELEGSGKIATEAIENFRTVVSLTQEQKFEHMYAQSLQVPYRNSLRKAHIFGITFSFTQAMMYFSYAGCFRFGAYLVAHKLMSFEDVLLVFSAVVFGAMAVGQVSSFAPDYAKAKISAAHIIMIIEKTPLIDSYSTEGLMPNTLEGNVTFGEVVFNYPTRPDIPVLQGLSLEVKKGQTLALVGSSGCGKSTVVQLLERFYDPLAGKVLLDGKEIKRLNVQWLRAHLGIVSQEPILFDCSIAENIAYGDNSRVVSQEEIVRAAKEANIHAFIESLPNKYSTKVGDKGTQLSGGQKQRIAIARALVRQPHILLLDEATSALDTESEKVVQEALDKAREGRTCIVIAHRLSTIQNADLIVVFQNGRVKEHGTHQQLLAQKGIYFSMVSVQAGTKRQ

Regarding `CC[C@@H]1CN(C)[C@H]2Cc3c([nH]c4ccccc34)C(=O)C[C@H]1[C@@H]2C(=O)OC`, the pIC50 (in general, the IC50 on a negative log10 scale, so that one unit is a factor of ten) was less than 4.00 in the data set with NIH3T3 and 4.25 in the data set with L5178Y. For the same molecule, the Ratio in [1] amounted to 1.38; in data set [4], 0.77. In addition, the Activity in [2] is reported as 2180; in data set [3], 1146; in data set [6], 1033; in data set [7], 2182. Further, the “inhibition (INH)” value in data set [5] is recorded as “Dose-dependent effect”.
Regarding `CC[C@@H]1CN(C)[C@H]2Cc3c([nH]c4ccccc34)/C(=N/O)C[C@H]1[C@@H]2C(=O)OC`, the pIC50 is less than 4.00 in the data set with NIH3T3 and 4.22 in the data set on L5178Y. Besides, the Ratio came to 7.31 in data set [1] and 1.26 in [4]. The Activity in data set [2] amounted to 2304; in data set [3] it was 789; in data set [6], 781; in [7], 2237. Also, the CI in [8] is recorded as 0.36. In data set [5], the “inhibition (INH)” value is given as “Dose-dependent effect”. In addition, the “Ratio IC50” value in data set [9] came to 0.7.
In the case of `CC[C@@H]1CN(C)[C@H]2Cc3c([nH]c4ccccc34)/C(=N/NC(N)=O)C[C@H]1[C@@H]2C(=O)OC`, the pIC50 in the data set on NIH3T3 and in the data set with L5178Y was less than 4.00 throughout. For the same molecule, the Ratio in data set [1] is 2.12; in data set [4], 1.04. The Activity in data set [2] is recorded as 2389; in data set [3], 793; in data set [6] it was 770; in [7], 2410. For the same molecule, the “inhibition (INH)” value in data set [5] is listed as “Dose-dependent effect”.
Turning to `CC[C@@H]1CN(C)[C@H]2Cc3c([nH]c4ccccc34)/C(=N/N)C[C@H]1[C@@H]2C(=O)OC`, the negative-log IC50 (pIC50) in the data set on NIH3T3 was 4.02; with L5178Y it was 4.33. Also, the Ratio in data set [1] is given as 18.46; in [4] it was 1.32. Also, the Activity in [2] came to 2172; in [3] it was 927; in data set [6], 918; in data set [7] it was 2191. For the same molecule, the “Ratio IC50” value in data set [10] is on record as 1.36; in [9] it was 0.96. The “inhibition (INH)” value in data set [5] is “Dose-dependent effect”.
Take `CC[C@H]1CN(C)[C@H]2Cc3c([nH]c4ccccc34)/C(=N/Nc3ccc(Br)cn3)C[C@H]1[C@@H]2C(=O)OC`: the negative logarithm of the IC50 (pIC50) with NIH3T3 is 4.06; in the data set with L5178Y, 4.45. For the same molecule, the Ratio came to 56.22 in [1] and 57.99 in data set [4]. Further, the Activity is 1947 in data set [2], 1049 in data set [3], 992 in data set [6] and 2152 in [7]. The figures for the “Ratio IC50” value in [10] and in [9] were 2.43 and 0.89, respectively. Moreover, the CI in [8] worked out at 0.28.
Take `CC[C@H]1CN(C)[C@H]2Cc3c(n(CCN(CC)CC)c4ccccc34)C(=O)C[C@H]1[C@@H]2C(=O)OC`: the negative logarithm of the IC50 (pIC50) was less than 4.00 in the data set on NIH3T3 and 4.17 in the data set on L5178Y. Also, the Ratio in [1] was 52.93; in data set [4] it was 2.56. In addition, the Activity is listed as 2440 in data set [2], 1214 in [3], 1192 in [6] and 2415 in [7]. Besides, the “inhibition (INH)” value in [5] is “Dose-dependent effect”.
With `CC[C@H]1CN(C)[C@H]2Cc3c([nH]c4ccccc34)C(=O)C[C@H]1[C@@H]2C(=O)OC`, the negative logarithm of the IC50 (pIC50) in the data set on NIH3T3 was less than 4.00; in the data set on L5178Y, 4.08. Further, the Ratio in data set [1] was 15.35; in data set [4], 1.79. Also, the Activity in data set [2] worked out at 2240; in data set [3] it was 1081; in data set [6], 1098; in data set [7] it was 2353. Moreover, in data set [5], the “inhibition (INH)” value is “Dose-dependent effect”.
For the molecule `CC[C@H]1CN(C)[C@H]2Cc3c([nH]c4ccccc34)/C(=N/NC(N)=O)C[C@H]1[C@@H]2C(=O)OC`, the pIC50 in the data set with NIH3T3 and in the data set with L5178Y was less than 4.00 throughout. For the same molecule, the values for the Ratio in [1] and in [4] were 2.24 and 1.16, respectively. For the same molecule, the Activity in [2] is on record as 2380; in data set [3] it was 778; in [6] it was 756; in [7], 2312. Besides, the “inhibition (INH)” value in data set [5] is recorded as “Dose-dependent effect”.
Consider `COc1ccc(CCN(C)CCCC(C#N)(c2ccc(OC)c(OC)c2)C(C)C)cc1OC` (stereo not drawn), for which the Activity is given as 2611 in data set [2] and 1078 in [6].
Regarding `CC[C@H]1CN(C)[C@H]2Cc3c(n(C(=O)c4cccc(C)c4)c4ccccc34)C(=O)C[C@H]1[C@@H]2C(=O)OC`, the negative-log IC50 (pIC50) with NIH3T3 and with L5178Y was less than 4.00 throughout. Further, the figures for the Ratio in [1] and in data set [4] were 12.1 and 0.95, respectively. Besides, the Activity in data set [2] was 2449; in [3], 1197; in [6] it was 1204; in [7], 2436. Also, the “inhibition (INH)” value in [5] is given as “Dose-dependent effect”.
Turning to `C/C=C/C(=O)O[C@H]1C[C@@H]2[C@@H](CC)CN(C)[C@@H](Cc3c1[nH]c1ccccc31)[C@H]2C(=O)OC`, the figures for the pIC50 with NIH3T3 and in the data set with L5178Y were less than 4.00 and 4.04, respectively. For the same molecule, the Ratio in [1] came to 18.09; in data set [4], 2.42. The Activity is 2447 in data set [2], 1226 in data set [3], 1213 in data set [6] and 2440 in data set [7]. For the same molecule, the “inhibition (INH)” value in data set [5] is reported as “Dose-dependent effect”.
For `CC[C@@H]1CN(C)[C@H]2Cc3c([nH]c4ccccc34)[C@@H](OC(=O)C34CC5CC(CC(C5)C3)C4)C[C@H]1[C@@H]2C(=O)OC`, the negative-log IC50 (pIC50) in the data set on NIH3T3 and with L5178Y was less than 4.00 throughout. Besides, the Ratio was found to be 8.61 in data set [1] and 1.08 in data set [4]. Moreover, the Activity is listed as 2442 in data set [2], 1209 in [3], 1203 in data set [6] and 2450 in data set [7]. The “inhibition (INH)” value in data set [5] is on record as “Dose-dependent effect”.
For `CC[C@H]1CN(C)[C@H]2Cc3c([nH]c4ccccc34)/C(=N/O)C[C@H]1[C@@H]2C(=O)OC`, the pIC50 is 4.45 in the data set on NIH3T3 and 4.89 in the data set on L5178Y. For the same molecule, the Ratio in data set [1] is recorded as 3.87; in [4], 0.85. Moreover, the Activity in [2] was 2182; in data set [3] it was 958; in data set [6] it was 912; in data set [7] it was 2156. Besides, the results for the “Ratio IC50” value in data set [10] and in data set [9] were 2.75 and 0.77, respectively. Moreover, in [5], the “inhibition (INH)” value is on record as “Dose-dependent effect”.
For `CC[C@@H]1CN(C)[C@H]2Cc3c([nH]c4ccccc34)/C(=N/Nc3ccc(Br)cn3)C[C@H]1[C@@H]2C(=O)OC`, the pIC50 in the data set on NIH3T3 was 4.08; in the data set with L5178Y, 4.53. Further, the figures for the Ratio in data set [1] and in data set [4] were 70.82 and 84.19, respectively. For the same molecule, the Activity is on record as 2225 in data set [2], 804 in [3], 765 in data set [6] and 2294 in [7]. Further, the “Ratio IC50” value in [10] worked out at 2.85; in data set [9], 0.78. Also, the CI in data set [8] is 0.19.
Consider `CC[C@H]1CN(C)[C@H]2Cc3c([nH]c4ccccc34)/C(=N/N)C[C@H]1[C@@H]2C(=O)OC`, for which the pIC50 with NIH3T3 was less than 4.00; with L5178Y, 4.16. The Ratio in [1] is on record as 46.47; in data set [4], 1.93. In addition, the Activity in data set [2] turned out to be 2162; in data set [3], 1025; in data set [6], 1037; in data set [7], 2184. The “inhibition (INH)” value in data set [5] is reported as “Dose-dependent effect”. The “Ratio IC50” value in data set [9] amounted to 0.95.
As for `CC[C@H]1CN(C)[C@H]2Cc3c([nH]c4ccccc34)[C@@H](O)C[C@H]1[C@@H]2C(=O)OC`, the negative logarithm of the IC50 (pIC50) in the data set on NIH3T3 and in the data set with L5178Y was less than 4.00 in each case. For the same molecule, the Ratio in data set [1] is on record as 5.18; in data set [4], 1.03. Moreover, the Activity in data set [2] is 2199; in data set [3], 809; in data set [6], 797; in [7], 2212. Moreover, the “inhibition (INH)” value in data set [5] is “Dose-dependent effect”.
